From patent publication US12036196B2, “Compositions and methods for the sustained release of beta-alanine” (Natural Alternatives International, Inc., priority 2005, dated 2024)

What was measured:
muscle [1] = settings: administering to an individual
Description: The dosing schedule that has been preferred for such administration (i.e., 8 times daily), however, leads to compliance issues and problems with paraesthesia. Thus, there is a need for improved supplements containing free beta-alanine or a biological source thereof in a sustained release formulation to increase compliance and decrease paraesthesia events.
During sustained intensive exercise or exercise sustained under conditions of local hypoxia, the accumulation of hydronium ions formed during glycolysis and the accumulation of lactate due to anaerobic metabolism can severely reduce the intracellular pH. The reduced pH can compromise the function of the creatine-phosphorylcreatine system. The decline in intracellular pH also can affect other functions within the cells such as the function of the contractile proteins in muscle fibers.

muscle [2] = settings: following administration (supplementation); previous work; cited from earlier work
[3] = Paraesthesia symptoms, drink versus delayed release capsules (Example 3); type: in vivo, human; settings: 1.75 g beta-alanine; two subjects
Description: Two subjects were given 1.75 g beta-alanine dissolved in water (formulated as a drink) or 5 capsules, each containing 0.35 g beta-alanine in a delayed release formulation.

[4] = bolus single dose of 2-6 grams
[5] = Paraesthesia symptoms after ingesting edible gel or beta-alanine dissolved in water (Example 1); type: in vivo, human; settings: 2 g beta-alanine ingested; following 20 minutes
Method: To prepare an edible gel containing free beta-alanine the contents of two packets of commercially available strawberry flavored gelatin gel were dissolved in 200 ml of boiling water. The contents were stirred continuously until the gel was completely dissolved. The gel was further fortified with the addition of a sachet of gelatin capsules. To this was added 80 g free beta-alanine (in a final volume of approximately 300 ml). The concentrated gel solution was poured into a 12×12 cm flat mould to a depth of approximately 2 cm and allowed to set to a stiff gel at 4° C. One square piece of gel (approximately 2×2×2 cm in size) contained approximately 2 g of beta-alanine.
In contrast, symptoms of paraesthesia were detected in subjects that ingested 2 g free beta-alanine dissolved in water. Thus the sustained release of free beta-alanine mitigates the symptoms of paraesthesia that are felt when equivalent amounts are administered in a single bolus dose.

paraesthesia [4]: results in paraesthesia
symptoms of paraesthesia [5]: detected
Compound: NCCC(=O)O [beta-alanine]
muscle beta-alanylhistidine peptide levels (muscle [1]): elevated
total work capacity of the muscle (muscle [1]): increased
carnosine in muscle (muscle [2]): significantly increased
symptoms of paraesthesia [3]: reported symptoms of paraesthesia affecting the face, scalp, neck, arms, hands and buttocks
